# Reference: patent US20240243319A1, “AQUEOUS ELECTROLYTE, SALTS USED THEREIN, AND REDOX FLOW BATTERY USING SAID AQUEOUS ELECTROLYTE” (MITSUBISHI CHEMICAL CORPORATION, priority 2021, published 2024)
# Assay: Dissolution test in 1 M chloride salt aqueous solutions
# Type: physicochemical
# Conditions: potassium chloride, lithium chloride and ammonium chloride aqueous solution, room temperature
# [1] = 0.01 mmol added to 10 mL each of 1 M sodium chloride
Compound,dissolution in aqueous salt solutions [1],dissolution in aqueous salt solutions (0.05 mmol added to 10 mL each of 1 M sodium chloride)
"O=C1c2ccccc2C(=O)c2c1cc(S(=O)(=O)[O-])c(O)c2O.[Na+] [Alizarin Red S, reference compound]",did not dissolve,
O=C(O)c1ccc2nc3cc(O)c(O)cc3nc2c1 [compound represented by formula (1a-1)],,did not dissolve
O=C(O)c1ccc2c(c1)C(=O)c1c(O)ccc(O)c1C2=O [compound represented by formula (2a-1)],did not dissolve,
